One series relates to p53 in primary MEFs. Nature of the series: p53 protein level by western blot (screen).
In series [1] the test system is tumors derived from HCT116. Nature of the series: HCT116 carcinoma xenograft in nude mice. It is filed as in vivo, mouse. The settings on record: 2.5mg/kg for 7 days. On the procedure:
Male BALB/cASlac-nude mice (4-week-old) were purchased from Shanghai Slac Laboratory Animal C. LTD. The mice were kept in the SPF mouse facility for 1 week before being inoculated with HCT116 cells. HCT116 cells were harvested by trypsinization, counted and resuspended in PBS at the concentration of 5×10^7/ml. We injected subcutaneously 3×10^6 cells to BALB/cASlac nude mice's back. After 2 weeks, the mice were divided into 3 groups (6 mice per group) and were treated with 5-Iodotubercidin (Itu), Bisindolylmaleimide IX or solvent (PBS). The mice were weighed and the size of tumor measured. The length (L) and width (W) of the tumor were measured with a digital caliper and expressed as tumor volume (0.5L×W^2, mm^3).

In the next series the test system is γH2AX foci in MEFs. The series can be described thus: γH2AX DNA damage foci, immunofluorescent staining. Type of series: cell-based, mouse. The conditions noted are these: 2.5 μM, 4 hrs. On the procedure: MEFs or HCT116 cells were cultured on cover slips while Baf3 cells were cultured on slides coated by 0.1mg/ml poly-L-lysine, washed with phosphate-buffered saline (PBS) twice, and then fixed in 4% paraformaldehyde (PFA), which were permeabilized with 0.1% Triton X in PBS for 30 minutes at room temperature. The primary antibodies were diluted in PBS with 1% BSA (1:200). The slides were blocked (1% BSA in PBS) for 60 minutes at room temperature, incubated with primary antibodies overnight at 4°C, and followed by secondary antibody incubation for 60 min at RT. The slides were then mounted and observed under confocal microscope (Leica, Germany). Antibodies against γH2AX were from Bethyl Corporation.

The subject of a further series is K562 cells. Nature of the series: Wst-1 cell survival assay. The settings on record: K562, Wst-1.
Series [2] concerns K562, HL-60, MCF7, U251, AGS, MGC-803, U2OS and Saos-2 cells. Type of series: cell-based. The source says: The reference wavelength was 630 nm.
www.impactjournals.com/oncotarget/ Oncotarget, Supplementary Materials 2016 […]

The test system of series [3] is B-Raf in BCR-ABL positive BaF3 cells. The series can be described thus: B-Raf phosphorylation, western blot. Type of series: cell-based, murine. On the procedure:
Activation and expression of Erk, Mek1, and Raf were determined by western blot. B. Inhibition of Erk decreased the cell survival rates in BaF3 cells expressing BCR-ABL compared to control cells. […] C. […] N=3. Right panel: Western blot results showing that B-Raf was knocked down in these cells.

Like-named read-outs stand apart in the source and are kept apart here.

Protocol for K562 cells: We then evaluated the cytotoxic effect of Bisindolylmaleimide IX in MEFs and HCT116 cells. Different doses of Bisindolylmaleimide IX were applied to the cell cultures and cell survival rates and IC50 were determined with Wst-1 assay.
To measure cell survival rates after Bisindolylmaleimide IX treatment, cells were plated at 1×10^4 in 96 well plates and cultured for overnight, which were then treated with Bisindolylmaleimide IX for 48 hrs. Cell proliferation reagent WST-1 (Roche) was added to each well and was further incubated for 4 hrs at 37°C. The absorbance was measured against a control using microplate reader at 440 nm. The reference wavelength was 630 nm.
Protocol for p53 in primary MEFs: Cells were lysed in TNEN buffer (50 mM Tris, 150 mM NaCl, 5 mM EDTA, 0.5% NP-40, and 0.1% Triton X-100) supplemented with 1 mM NaF, Na2VO3, 1 mM PMSF, and 1 μg/ml of aprotonin, leupeptin, and pepstatin A. Protein concentrations were determined using a Bio-Rad assay. Proteins were resolved by SDS-PAGE and transferred to polyvinylidene difluoride membranes (Millipore).

Consider `CCCCCCCCCCCCCCCC(=O)OC(CC(=O)O)C[N+](C)(C)C.[Cl-]` (racemic) [Palmitoyl-DL-carnitine Cl], for which, in the series with p53 in primary MEFs, the p53 protein up-regulation result is “failed to up-regulate p53 in MEFs”.

For `Nc1ncnc2c1c(I)cn2[C@@H]1O[C@H](CO)[C@@H](O)[C@H]1O` [5-Iodotubercidin], the tumor growth result in series [1] is on record as “greatly inhibited tumor growth”. Besides, the p53 protein up-regulation result in the series with p53 in primary MEFs is given as “up-regulate p53 at the protein levels”. As to `CN(C)CCCn1cc(C2=C(c3c[nH]c4ccccc34)C(=O)NC2=O)c2ccccc21` [Bisindolylmaleimide I], the γH2AX foci formation result in the series on γH2AX foci in MEFs is on record as “minimal numbers of foci”. For the same compound, in the series with p53 in primary MEFs, the p53 protein up-regulation entry is on record as “failed to up-regulate p53 in MEFs”. In the case of `Cn1cc(C2=C(c3cn(C4CCN(Cc5ccccn5)CC4)c4ccccc34)C(=O)NC2=O)c2ccccc21` [Enzastaurin], the “cytotoxicity (in words)” value in the series with K562 cells is “modest cytotoxic effect”. In the series with γH2AX foci in MEFs, the γH2AX foci formation entry is recorded as “minimal numbers of foci”. Also, the “cytotoxic effect (in words)” value with BCR-ABL BaF3 cells (BCR-ABL BaF3, 24 hrs, compared among bisindolylmaleimide derivatives) was “modest cytotoxic effect”. `CC1CNCCN1S(=O)(=O)c1cccc2cnccc12` (stereo not drawn) [H-7]: the p53 protein up-regulation entry in the series with p53 in primary MEFs was “failed to up-regulate p53 in MEFs”. Consider `NCCNS(=O)(=O)c1cccc2cnccc12` [H-9], for which the p53 protein up-regulation result in the series on p53 in primary MEFs is given as “failed to up-regulate p53 in MEFs”. Same read-out and setting: then `COCc1cc(O)c(O)c(O)c1-c1c(COC)cc(O)c(O)c1O` [HBDDE], with “failed to up-regulate p53 in MEFs”. Still for that read-out and setting: then `Cc1cc(O)c2c(=O)c3c(O)cc(O)c4c5c(O)cc(O)c6c(=O)c7c(O)cc(C)c8c1c2c(c34)c(c78)c65` [Hypericin], with “failed to up-regulate p53 in MEFs”. Regarding `Cc1ccc(NC(=O)c2ccc(CN3CCN(C)CC3)cc2)cc1Nc1nccc(-c2cccnc2)n1` [Imatinib], in series [2], the “cytotoxic effects across cell lines (in words)” value was “specificity to BCR-ABL positive cells”. In the case of `CC(=O)c1c(O)c(C)c(O)c(Cc2c(O)c3c(c(C(=O)/C=C/c4ccccc4)c2O)OC(C)(C)C=C3)c1O` [Rottlerin], in the series on p53 in primary MEFs, the p53 protein up-regulation entry was “failed to up-regulate p53 in MEFs”. Take `CCCCCCCCCCCCC/C=C/[C@@H](O)[C@@H](N)CO` [Sphingosine]: in the series on p53 in primary MEFs, the p53 protein up-regulation result is reported as “failed to up-regulate p53 in MEFs”. For the compound `N#CC(=C(/N)Sc1ccccc1N)/C(C#N)=C(/N)Sc1ccccc1N` [U0126], in the series with BCR-ABL BaF3 cells (inhibition of Erk), the “cell death rates in BCR-ABL expressing BaF3 cells versus control cells” value was “increased cell death rates”. Regarding `COc1cccc2c1C(=O)c1c(O)c3c(c(O)c1C2=O)C[C@@](O)(C(=O)CO)C[C@@H]3O[C@H]1C[C@H](N)[C@H](O)[C@H](C)O1` [doxorubicin], the “phosphorylation of B-Raf” value in series [3] is recorded as “did not affect the phosphorylation of B-Raf”. As to `CN[C@@H]1C[C@H]2O[C@@](C)([C@@H]1OC)n1c3ccccc3c3c4c(c5c6ccccc6n2c5c31)C(=O)NC4` [staurosporine], in series [2] (24 hrs, Wst-1), the “cytotoxic effects across cell lines (in words)” value is “strong cytotoxic effects in almost all these cell lines”. The p53 protein up-regulation entry in the series with p53 in primary MEFs is “failed to up-regulate p53 in MEFs”. Regarding `COc1cc([C@@H]2c3cc4c(cc3[C@@H](O[C@@H]3O[C@@H]5CO[C@@H](c6cccs6)O[C@H]5[C@H](O)[C@H]3O)[C@H]3COC(=O)[C@H]23)OCO4)cc(OC)c1O` [teniposide], in series [3], the “phosphorylation of B-Raf” value was “did not affect the phosphorylation of B-Raf”. For the same compound, the “survival of BCR-ABL positive BaF3 cells compared with control cells” value with BCR-ABL BaF3 cells (24 hrs, Wst-1) was “increased survival”.
